Assay results: paper PMC3644221 (Toxicology letters, 2013)
pIC50: −log10 of the molar value.

Biological target: CYP1A1 (Homo sapiens, UniProt P04798)
Assay: inhibition of CYP1A1-specific Luciferin-CEE activity
Assay type: biochemical

Chain of CYP1A1 (P04798 whole entry): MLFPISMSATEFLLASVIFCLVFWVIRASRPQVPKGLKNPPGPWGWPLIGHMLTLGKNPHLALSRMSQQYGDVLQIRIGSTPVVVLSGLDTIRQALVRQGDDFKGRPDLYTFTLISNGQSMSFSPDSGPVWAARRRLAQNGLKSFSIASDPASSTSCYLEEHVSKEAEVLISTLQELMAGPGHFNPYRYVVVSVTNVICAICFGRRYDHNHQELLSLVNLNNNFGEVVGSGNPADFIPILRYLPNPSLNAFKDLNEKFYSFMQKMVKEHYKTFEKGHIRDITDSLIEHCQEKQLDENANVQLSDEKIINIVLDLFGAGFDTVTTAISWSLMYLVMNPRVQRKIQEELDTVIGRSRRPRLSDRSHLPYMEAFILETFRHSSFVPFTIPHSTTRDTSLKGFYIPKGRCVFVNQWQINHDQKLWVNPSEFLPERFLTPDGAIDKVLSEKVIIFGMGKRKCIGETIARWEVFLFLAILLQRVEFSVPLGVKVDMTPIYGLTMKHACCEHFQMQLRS

Row | Structure (SMILES) | pIC50
1 | Oc1cc(O)c2cc(O)c(-c3cc(O)c(O)c(O)c3)[o+]c2c1 [delphinidin] | 4.11
2 | Oc1ccc(-c2[o+]c3cc(O)cc(O)c3cc2O)cc1 [pelargonidin] | 4.48
